# Test results reported in patent US20260285850A1, “SUBSTITUTED OXAZOLIDINONES AND IMIDAZOLINONES AS HERBICIDES” (FMC CORPORATION, priority 2023, published 2026).
# Assays:
# Format in all cases: in vivo
# kochia (Bassia scoparia) [1] = experiment: Test A postemergence application, visual injury rating 0-100; conditions: 10 days
# How it was run: (§1)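 Compounds formulated in a non-phytotoxic solvent with surfactant are sprayed onto soil of freshly planted loam-sand pots ahead of emergence, or onto emerged plants 2-10 cm tall. After a 10-day greenhouse period, each species is scored visually for injury against untreated controls.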
# [2] = test system: wheat (Triticum aestivum); experiment: as above; conditions: 10 days
# How it was run: as §1
# [3] = test system: barnyardgrass (Echinochloa crus-galli); experiment: as above; conditions: 10 days
# How it was run: as §1
# [4] = test system: galium (catchweed bedstraw, Galium aparine); experiment: as above; conditions: 10 days
# How it was run: as §1
# [5] = test system: horseweed (Erigeron canadensis); experiment: as above; conditions: 10 days
# How it was run: as §1
# [6] = test system: oat, wild (wild oat, Avena fatua); experiment: as above; conditions: 10 days
# How it was run: as §1
# [7] = test system: ryegrass, Italian (italian ryegrass, Lolium multiflorum); experiment: as above; conditions: 10 days
# How it was run: as §1
# [8] = test system: blackgrass (Alopecurus myosuroides); experiment: as above; conditions: 10 days
# How it was run: as §1
# [9] = test system: palmer (palmer amaranth, palmer pigweed, Amaranthus palmeri); experiment: as above; conditions: 10 days
# How it was run: as §1
# corn (Zea mays) [10] = experiment: as above; conditions: 10 days
# How it was run: as §1
# [11] = test system: ragweed (common ragweed, Ambrosia artemisiifolia); experiment: as above; conditions: 10 days
# How it was run: as §1
# [12] = test system: green foxtail (Setaria viridis); experiment: as above; conditions: 10 days
# How it was run: as §1
# soybean (Glycine max) [13] = experiment: as above; conditions: 10 days
# How it was run: as §1
# kochia (Bassia scoparia) [14] = experiment: Test A preemergence soil spray, visual injury rating 0-100; conditions: 10 days, 0 = no effect, 100 = complete control
# How it was run: as §1
# [15] = test system: wheat (Triticum aestivum); experiment: as above; conditions: 10 days, 0 = no effect, 100 = complete control
# How it was run: as §1
# [16] = test system: barnyardgrass (Echinochloa crus-galli); experiment: as above; conditions: 10 days, 0 = no effect, 100 = complete control
# How it was run: as §1
# [17] = test system: oat, wild (wild oat, Avena fatua); experiment: as above; conditions: 10 days, 0 = no effect, 100 = complete control
# How it was run: as §1
# [18] = test system: ryegrass, Italian (italian ryegrass, Lolium multiflorum); experiment: as above; conditions: 10 days, 0 = no effect, 100 = complete control
# How it was run: as §1
# [19] = test system: blackgrass (Alopecurus myosuroides); experiment: as above; conditions: 10 days, 0 = no effect, 100 = complete control
# How it was run: as §1
# [20] = test system: palmer (palmer amaranth, palmer pigweed, Amaranthus palmeri); experiment: as above; conditions: 10 days, 0 = no effect, 100 = complete control
# How it was run: as §1
# corn (Zea mays) [21] = experiment: as above; conditions: 10 days, 0 = no effect, 100 = complete control
# How it was run: as §1
# [22] = test system: ragweed (common ragweed, Ambrosia artemisiifolia); experiment: as above; conditions: 10 days, 0 = no effect, 100 = complete control
# How it was run: as §1
# [23] = test system: green foxtail (Setaria viridis); experiment: as above; conditions: 10 days, 0 = no effect, 100 = complete control
# How it was run: as §1
# soybean (Glycine max) [24] = experiment: as above; conditions: 10 days, 0 = no effect, 100 = complete control
# How it was run: as §1
# [25] = test system: sedge, umbrella (small-flower umbrella sedge, Cyperus difformis); experiment: Test B flooded paddy test, visual plant response rating 0-100; conditions: 250 g ai/ha, Flood, applied to paddy water, evaluated after 13 days
# How it was run: (§2)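 Greenhouse, 13 d. Seedlings at 2-leaf stage, pots flooded to 3 cm, compound delivered into floodwater, water level held constant. Evaluated visually relative to controls.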
# [26] = test system: ducksalad (Heteranthera limosa); experiment: as above; conditions: 250 g ai/ha, Flood, applied to paddy water, evaluated after 13 days
# How it was run: as §2
# [27] = test system: barnyardgrass (Echinochloa crusgalli); experiment: as above; conditions: 250 g ai/ha, Flood, applied to paddy water, evaluated after 13 days
# How it was run: as §2
# rice (Oryza sativa) = experiment: as above; conditions: 250 g ai/ha, Flood, applied to paddy water, evaluated after 13 days
# How it was run: as §2
# [28] = 31 g ai/ha, postemergence, 0 = no effect, 100 = complete control
# [29] = Postemergence, 125 g ai/ha, 0 is no effect, 100 is complete control
smiles,measurement,setting,value
CCOC(=O)COC(=O)C1C=CC(NC(=O)C2(C)CN(c3cc(F)cc(F)c3)C(=O)O2)C1 (stereo not shown) [Compound 53],Kochia plant response rating (0-100),kochia (Bassia scoparia) [1]; [28],80
same,Kochia plant response rating (0 to 100 scale),kochia (Bassia scoparia) [1]; [29],80
same,Wheat plant response rating (0-100),[2]; [28],90
same,Wheat plant response rating (0 to 100 scale),[2]; [29],90
same,Barnyardgrass plant response rating (0-100),[3]; [28],100
same,Barnyardgrass plant response rating (0 to 100 scale),[3]; [29],100
same,Galium plant response rating (0-100),[4]; [28],80
same,Galium plant response rating (0 to 100 scale),[4]; [29],80
same,Horseweed plant response rating (0-100),[5]; [28],60
same,Horseweed plant response rating (0 to 100 scale),[5]; [29],70
same,"Oat, Wild plant response rating (0-100)",[6]; [28],90
same,"Oat, Wild plant response rating (0 to 100 scale)",[6]; [29],90
same,"Ryegrass, Italian plant response rating (0-100)",[7]; [28],90
same,"Ryegrass, Italian plant response rating (0 to 100 scale)",[7]; [29],90
same,Blackgrass plant response rating (0-100),[8]; [28],70
same,Blackgrass plant response rating (0 to 100 scale),[8]; [29],80
same,"Amaranth, Palmer plant response rating (0-100)",[9]; [28],70
same,"Amaranth, Palmer / Pigweed, Palmer plant response rating (0 to 100 scale)",[9]; [29],90
same,Corn plant response rating (0-100),corn (Zea mays) [10]; [28],100
same,Corn plant response rating (0 to 100 scale),corn (Zea mays) [10]; [29],100
same,Ragweed plant response rating (0-100),[11]; [28],50
same,Ragweed plant response rating (0 to 100 scale),[11]; [29],80
same,"Foxtail, Green plant response rating (0-100)",[12]; [28],50
same,"Foxtail, Green plant response rating (0 to 100 scale)",[12]; [29],70
same,Soybean plant response rating (0-100),soybean (Glycine max) [13]; [28],70
same,Soybean plant response rating (0 to 100 scale),soybean (Glycine max) [13]; [29],70
same,Kochia plant response rating (0-100),kochia (Bassia scoparia) [14]; 31 g ai/ha,0
same,Kochia plant response rating (0 to 100 scale),kochia (Bassia scoparia) [14]; 125 g ai/ha,90
same,Wheat plant response rating (0-100),[15]; 31 g ai/ha,70
same,Wheat plant response rating (0 to 100 scale),[15]; 125 g ai/ha,90
same,Barnyardgrass plant response rating (0-100),[16]; 31 g ai/ha,30
same,Barnyardgrass plant response rating (0 to 100 scale),[16]; 125 g ai/ha,100
same,"Oat, Wild plant response rating (0-100)",[17]; 31 g ai/ha,50
same,"Oat, Wild plant response rating (0 to 100 scale)",[17]; 125 g ai/ha,90
same,"Ryegrass, Italian plant response rating (0-100)",[18]; 31 g ai/ha,70
same,"Ryegrass, Italian plant response rating (0 to 100 scale)",[18]; 125 g ai/ha,100
same,Blackgrass plant response rating (0-100),[19]; 31 g ai/ha,50
same,Blackgrass plant response rating (0 to 100 scale),[19]; 125 g ai/ha,90
same,"Amaranth, Palmer plant response rating (0-100)",[20]; 31 g ai/ha,30
same,"Amaranth, Palmer plant response rating (0 to 100 scale)",[20]; 125 g ai/ha,60
same,Corn plant response rating (0-100),corn (Zea mays) [21]; 31 g ai/ha,0
same,Corn plant response rating (0 to 100 scale),corn (Zea mays) [21]; 125 g ai/ha,60
same,Ragweed plant response rating (0-100),[22]; 31 g ai/ha,0
same,Ragweed plant response rating (0 to 100 scale),[22]; 125 g ai/ha,20
same,"Foxtail, Green plant response rating (0-100)",[23]; 31 g ai/ha,0
same,"Foxtail, Green plant response rating (0 to 100 scale)",[23]; 125 g ai/ha,20
same,Soybean plant response rating (0-100),soybean (Glycine max) [24]; 31 g ai/ha,30
same,Soybean plant response rating (0 to 100 scale),soybean (Glycine max) [24]; 125 g ai/ha,70
same,"Plant response rating, Sedge, Umbrella (0 to 100 scale, 0 is no effect and 100 is complete control)",[25],60
same,"Plant response rating, Ducksalad (0 to 100 scale, 0 is no effect and 100 is complete control)",[26],90
same,"Plant response rating, Barnyardgrass (0 to 100 scale, 0 is no effect and 100 is complete control)",[27],90
same,"Plant response rating, Rice (0 to 100 scale, 0 is no effect and 100 is complete control)",rice (Oryza sativa),20
